This note sets out measurements from ChEMBL document CHEMBL1141944, “A synthesis of 3-deoxydihydrolycoricidine: refinement of a structurally minimum pancratistatin pharmacophore” (Bioorg Med Chem Lett, 2005).

Active and inactive are the calls of the source. No cut-off for these calls is given here.

Holding throughout (format): functional, cell-based
Test [1] deals with MCF7. Put plainly: Antitumor activity in human breast carcinoma MCF7 cell line at 1 to 10 uM.
Test [2] relates to Jurkat. The experiment in a line: Antitumor activity in human Jurkat […] cell line at 1 to 10 uM.
For test [3], the system named is MCF7. The experiment in a line: Induction of apoptosis in human breast carcinoma MCF7 cell line.
Test [4] has as its system Jurkat. Put plainly: Induction of apoptosis in human Jurkat […] cell line.

For the molecule `O=C1N[C@H]2[C@H](O)C[C@@H](O)C[C@@H]2c2cc3c(cc21)OCO3`, the result in test [1], in test [2], in test [3] and in test [4] was inactive.

Turning to `O=C1N[C@H]2[C@H](O)[C@H](O)[C@@H](O)[C@H](O)[C@@H]2c2cc3c(c(O)c21)OCO3`, the result in test [3] and in test [4] was Active.
